IC50 data for 4 molecules are collected here from patent publication US20160009751A1, “C-19 HYDROXY PREGNENES” (LEO Pharma A/S, priority 2014, published 2016).

The target of assay [1] is T1, recombinant glucocorticoid receptor (GR) (Homo sapiens, UniProt P04150).
T1 sequence (P04150 1-777): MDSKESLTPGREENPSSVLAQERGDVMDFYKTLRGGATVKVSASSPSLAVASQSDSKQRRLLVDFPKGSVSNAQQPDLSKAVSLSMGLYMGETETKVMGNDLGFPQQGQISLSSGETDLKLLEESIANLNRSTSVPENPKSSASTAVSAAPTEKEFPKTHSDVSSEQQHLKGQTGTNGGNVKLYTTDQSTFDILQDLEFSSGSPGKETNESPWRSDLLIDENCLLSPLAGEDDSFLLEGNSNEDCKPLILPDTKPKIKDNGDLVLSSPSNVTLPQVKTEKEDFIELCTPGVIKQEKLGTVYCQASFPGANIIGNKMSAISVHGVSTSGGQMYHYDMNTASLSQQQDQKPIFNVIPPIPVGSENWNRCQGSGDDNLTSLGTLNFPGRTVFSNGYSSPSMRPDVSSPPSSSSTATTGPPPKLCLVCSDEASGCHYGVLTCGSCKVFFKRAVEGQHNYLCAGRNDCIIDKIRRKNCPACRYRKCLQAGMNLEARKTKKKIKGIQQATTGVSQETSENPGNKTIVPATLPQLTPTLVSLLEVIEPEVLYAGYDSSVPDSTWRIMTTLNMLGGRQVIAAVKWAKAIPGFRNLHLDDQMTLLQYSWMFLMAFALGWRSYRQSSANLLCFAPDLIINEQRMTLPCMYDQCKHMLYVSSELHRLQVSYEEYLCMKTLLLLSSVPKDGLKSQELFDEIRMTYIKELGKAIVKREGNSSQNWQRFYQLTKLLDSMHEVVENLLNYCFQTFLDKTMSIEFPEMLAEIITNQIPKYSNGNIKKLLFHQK
In words: Glucocorticoid receptor (GR) competitive binding assay (PolarScreen, fluorescence polarization). As to conditions: competition with Fluormone GS1, 2 hours at room temperature; relative IC50; read-out: GR binding; Rel IC50. How it is done:
Glucocorticoid receptor binding was determined by competitive receptor binding assay using the PolarScreen™ Glucocorticoid Receptor Competitor Assay Kit, Green (Life Technologies, catalogue number A15897) in a 384-well format according to the manufacturer's instructions. Briefly, serial dilutions of test and reference compounds were prepared in 384-well plates. Subsequently, the steroidal competitor Fluormone™ GS1 and recombinant glucocorticoid receptor (GR) were added to all wells and the plate was incubated for 2 hours at room temperature and protected from light. Finally, polarization values in each well were determined by reading the plate in an EnVision (PerkinElmer) device.
On the technique in general: Fluorescence polarisation rises when a labelled molecule tumbles more slowly, as on binding a larger partner.

The subject of assay [2] is Interleukin-12B (IL-12B) release from primary human monocytes (PBMC). In words: Interleukin-12B (IL-12B) release from LPS-stimulated primary human monocytes (PBMC). It counts as cell-based. The following applies: 100 ng/ml LPS for 18 h, ELISA, relative IC50, read-out: Interleukin-12B (IL-12B), Rel IC50. From the text:
The assay was adopted from a previously reported method (Schäcke et al, Br 3 Pharmacol (2009); 158(4): 1088-103) and is based on PBMC isolated from human blood. Stimulation of these cells with lipopolysaccharide (LPS) induces—among many other processes—the synthesis and secretion of the cytokine IL-12B. Both steroidal (glucocorticoids) and non-steroidal glucocorticoid receptor agonists act anti-inflammatory—e.g. by preventing DNA-binding of inflammatory transcription factors like AP-1 or NFkB—resulting in decreased synthesis/secretion of IL12B.
For compound testing, frozen stocks of PBMC were thawed, seeded in 96-well plates (1.2E5 cells/well) and then incubated in RPMI-1640 culture medium with 100 ng/ml LPS for 18 h with or without test compounds (pre-incubation with reference/test compounds for 1 h before addition of LPS). Then, IL-12B concentration in the cell culture supernatants was detected by hIL-12B-specific ELISA (Quantikine® human IL-12 p40 Immunoassay, R&D Systems Cat #SP400).
On the technique in general: In an ELISA, binding on a coated surface is turned into a signal by an enzyme label.

Assay [3] concerns the target T2, mineralocorticoid receptor (MR) (Homo sapiens, UniProt P08235).
T2 construct: UAS-driven beta-lactamase reporter
T2 sequence (P08235 726-984 limits assumed): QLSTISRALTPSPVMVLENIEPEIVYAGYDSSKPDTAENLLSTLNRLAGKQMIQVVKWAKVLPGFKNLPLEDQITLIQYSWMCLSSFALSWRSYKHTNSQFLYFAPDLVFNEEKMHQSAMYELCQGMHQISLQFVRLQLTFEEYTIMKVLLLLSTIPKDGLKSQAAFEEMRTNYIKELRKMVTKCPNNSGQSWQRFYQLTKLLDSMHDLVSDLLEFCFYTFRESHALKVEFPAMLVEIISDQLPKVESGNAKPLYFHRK
Nature of the assay: Mineralocorticoid receptor (MR) antagonism assay (GeneBLAzer MR DA, beta-lactamase reporter). The following applies: 0.14 nM-1 uM test compound, 10 nM aldosterone; relative IC50; read-out: Mineral corticoid receptor (MR) antagonism; Rel IC50. It counts as cell-based. The method, then: Agonistic and antagonistic interaction with the mineralocorticoid receptor was determined using the GeneBLAzer® MR DA Assay Kit (Life Technologies, catalogue number K1409) in a 96-well format according to the manufacturer's instructions. For determination of MR agonistic effect, cells were incubated with 0.14 nM-1 uM of test compound; the MR agonist aldosterone was included as a positive control in the same concentration range. After 16 h incubation, assay substrate (LiveBLAzer™-FRET B/G) was added to all wells and cells were incubated for 2 h followed by fluorometric detection (409/447 nm excitation and emission wavelength, respectively) of substrate conversion by beta-lactamase.
After 0.5 h, 10 nM of the MR agonist aldosterone was added to all wells and cells were incubated for another 15.5 h. After that, assay substrate (LiveBLAzer™-FRET B/G) was added to all wells and cells were incubated for 2 h followed by fluorometric detection (409/447 nm excitation and emission wavelength, respectively) substrate conversion by beta lactamase.

Where only a bound is given, the exact number is not on record here.

Turning to `CCC(=O)O[C@]1(C(=O)CCl)[C@@H](C)C[C@H]2[C@@H]3CCC4=CC(=O)C=C[C@]4(C)[C@@]3(F)[C@@H](O)C[C@@]21C` [Clobetasol propionate], the IC50 in assay [1] was 6 nM; in assay [2] it was < 1 nM; in assay [3] it was 171 nM.

In the case of `CCC(=O)O[C@]1(C(=O)CCl)CC[C@H]2[C@@H]3C[C@@H](F)C4=CC(=O)CC[C@]4(CO)[C@H]3[C@@H](O)C[C@@]21C` [Compound 2, (6R,8S,9S,10S,11S,13S,14S,17R)-17-(2-chloroacetyl)-6-fluoro-11-hydroxy-10-(hydroxymethyl)-13-methyl-3-oxo-2,3,6,7,8,9,10,11,12,13,14,15,16,17-tetradecahydro-1H-cyclopenta[a]phenanthren-17-yl propionate], the values for the IC50 in assay [1] and in assay [2] were 40 nM and 31 nM, respectively.

For the molecule `CCCCC(=O)O[C@]1(C(=O)CO)[C@@H](C)C[C@H]2[C@@H]3CCC4=CC(=O)C=C[C@]4(C)[C@@]3(F)[C@@H](O)C[C@@]21C` [Bethamethasone valerate], the IC50 was 7 nM in assay [1], < 1 nM in assay [2] and 137 nM in assay [3].

With `CCC(=O)O[C@]1(C(=O)CCl)CC[C@H]2[C@@H]3CCC4=CC(=O)CC[C@]4(CO)[C@H]3[C@@H](O)C[C@@]21C` [Compound 1, (8S,9S,10S,11S,13S,14S,17R)-17-(2-chloroacetyl)-11-hydroxy-10-(hydroxymethyl-13-methyl-3-oxo-2,3,6,7,8,9,10,11,12,13,14,15,16,17-tetradecahydro-1H-cyclopenta[a]phenanthren-17-yl propionate], the IC50 in assay [1] was 25 nM; in assay [2], 36 nM; in assay [3], > 1000 nM.
